How the values were obtained:
mice = settings: oral dose of 500 mg/Kg/day over a 4 week period; cited from earlier work
[1] = human, in vivo, cited from earlier work
[2] = test system: horses with joint and/or soft tissue lameness; test: Clinical response of racing and non-racing horses with joint and/or soft tissue lameness to AICAR injected intra-articularly or locally infiltrated; format: in vivo, horse; settings: all treated horses; localized injection of 1.3 mg/ml AICAR
Experimental: In the examples below the novel or test composition indicated as NOVEL was comprised of 1.3 mg/ml solutions of AICAR. The purpose of this study was to evaluate the clinical response of racing and non-racing horses with joint and/or soft tissue lameness to various doses of AICAR, either injected intra-articularly or locally infiltrated into the affected soft tissue structure. […] In most cases, multiple joints or soft tissue structures per animal were treated. In some cases, joints and soft tissue structures were injected simultaneously.
Addition of 0.5 ml of an aminoglycoside antibiotic per 2.5 ml vial of AICAR was left up to the discretion of the attending veterinarian. Prior to the treatment, each case was graded for lameness, swelling and heat, and pain. Each injected joint received either one, 1.3 mg/ml, 2.5 ml dose (3.25 mg) for a small joint, or two, 2.5 ml dose vials for large (stifle) joints. Soft tissue structures, including tendons and tendon sheaths, suspensory ligaments, exostoses (splints), periosteal osteitis, and perineural injections were done with multiple vials of the AICAR. The dose was dependent upon the perceived surface area to be treated. The horses were re-examined at various times post-injection as most horses were stabled at locations remote to the veterinarians. All cases were followed up by telephone calls to trainers/caretakers within 24 hours. […]

NC(=O)c1ncn([C@@H]2O[C@H](CO)[C@@H](O)[C@H]2O)c1N [AICAR, 5-amino-1-β-D-ribofuranosyl-imidazole-4-carboxamide]
performance-enhancing activity (mice): performance-enhancing activity | oral bioavailability ([1]; po): less than 5% | plasma clearance [1]: 36.7 mL/min/kg | adverse events [2]: No adverse events were reported with the exception of transient swelling of a fetlock that was traumatically injected
